This note sets out measurements from publication PMC4010227 (Journal of computer-aided molecular design, 2010).

Bounds are passed on as bounds.

The target in this experiment is F508del-CFTR (Homo sapiens, UniProt P13569, DEL508-508). Description: Ussing chamber short-circuit current, acute cumulative dose response. It counts as cell-based.

EPX-108380: the EC50 is under 1 µM.

As usually defined, the EC50 is the concentration needed to bring the measured effect to its halfway point. A lower EC50 goes with an effect from little substance.
